Data reported in ChEMBL document CHEMBL1909046, “DrugMatrix in vitro pharmacology data”.

Columns and labels:
[1] = biological target: T1, 5-hydroxytryptamine receptor 2C (Homo sapiens, UniProt P28335); assay: DRUGMATRIX: Serotonin (5-Hydroxytryptamine) 5-HT2C radioligand binding (ligand: [3H] Mesulergine); format: cell membranes, CHO-K1, Membrane; settings: Not Active = under 50% inhibition at 10 µM; for Ki: read-out: Ki
T1 sequence (P28335 whole entry): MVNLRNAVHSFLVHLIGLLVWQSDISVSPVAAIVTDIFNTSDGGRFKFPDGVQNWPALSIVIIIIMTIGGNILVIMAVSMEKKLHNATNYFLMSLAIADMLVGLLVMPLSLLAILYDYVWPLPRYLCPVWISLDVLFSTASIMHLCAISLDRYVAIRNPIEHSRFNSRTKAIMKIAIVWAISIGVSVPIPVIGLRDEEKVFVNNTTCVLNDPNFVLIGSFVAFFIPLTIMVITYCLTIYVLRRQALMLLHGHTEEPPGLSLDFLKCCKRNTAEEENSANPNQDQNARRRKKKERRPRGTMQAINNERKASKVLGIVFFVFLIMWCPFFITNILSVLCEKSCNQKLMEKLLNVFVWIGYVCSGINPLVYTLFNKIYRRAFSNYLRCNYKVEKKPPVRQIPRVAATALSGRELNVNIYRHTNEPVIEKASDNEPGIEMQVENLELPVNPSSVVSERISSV

[2] = DRUGMATRIX: Sigma2 radioligand binding (ligand: [3H] Ifenprodil); format: cell membranes, Rattus norvegicus, Wistar, Brain, Membrane; settings: Not Active = under 50% inhibition at 10 µM
[3] = biological target: C-C chemokine receptor type 5 (Homo sapiens, UniProt P51681); format: cell membranes, Membrane; settings: hek293; also: in other assays of this panel Not Active means under 50% inhibition at 10 µM
Chain of C-C chemokine receptor type 5 (P51681 whole entry): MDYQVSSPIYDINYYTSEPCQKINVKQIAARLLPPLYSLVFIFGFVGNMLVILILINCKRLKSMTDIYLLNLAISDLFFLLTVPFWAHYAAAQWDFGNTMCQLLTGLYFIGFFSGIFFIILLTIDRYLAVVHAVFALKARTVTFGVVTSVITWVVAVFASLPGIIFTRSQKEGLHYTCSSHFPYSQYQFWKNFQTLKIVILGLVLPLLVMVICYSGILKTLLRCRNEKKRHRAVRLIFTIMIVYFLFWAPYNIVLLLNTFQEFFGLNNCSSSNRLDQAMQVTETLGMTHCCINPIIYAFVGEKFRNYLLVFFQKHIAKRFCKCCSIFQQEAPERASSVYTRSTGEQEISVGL

D(4) dopamine receptor = biological target: T2, D(4) dopamine receptor (Homo sapiens, UniProt P21917); assay: DRUGMATRIX: Dopamine D4.2 radioligand binding (ligand: [3H] Spiperone); format: cell membranes, CHO-K1, Membrane; settings: Not Active = under 50% inhibition at 10 µM
T2 sequence (P21917 whole entry): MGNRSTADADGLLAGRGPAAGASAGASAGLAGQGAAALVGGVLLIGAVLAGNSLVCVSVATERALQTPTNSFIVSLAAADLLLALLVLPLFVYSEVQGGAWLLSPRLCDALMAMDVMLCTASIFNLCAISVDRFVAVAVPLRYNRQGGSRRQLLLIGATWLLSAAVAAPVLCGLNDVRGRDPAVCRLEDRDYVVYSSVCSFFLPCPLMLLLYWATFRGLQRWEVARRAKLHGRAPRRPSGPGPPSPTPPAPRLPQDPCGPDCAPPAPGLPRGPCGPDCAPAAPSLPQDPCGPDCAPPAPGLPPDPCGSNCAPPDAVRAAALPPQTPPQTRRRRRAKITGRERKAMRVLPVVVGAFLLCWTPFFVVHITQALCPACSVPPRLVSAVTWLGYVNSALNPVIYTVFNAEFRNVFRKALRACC

Endothelin-1 receptor = biological target: T3, Endothelin-1 receptor (Homo sapiens, UniProt P25101); format: cell membranes, CHO-K1, Membrane; also: in other assays of this panel Not Active means under 50% inhibition at 10 µM
T3 sequence (P25101 whole entry): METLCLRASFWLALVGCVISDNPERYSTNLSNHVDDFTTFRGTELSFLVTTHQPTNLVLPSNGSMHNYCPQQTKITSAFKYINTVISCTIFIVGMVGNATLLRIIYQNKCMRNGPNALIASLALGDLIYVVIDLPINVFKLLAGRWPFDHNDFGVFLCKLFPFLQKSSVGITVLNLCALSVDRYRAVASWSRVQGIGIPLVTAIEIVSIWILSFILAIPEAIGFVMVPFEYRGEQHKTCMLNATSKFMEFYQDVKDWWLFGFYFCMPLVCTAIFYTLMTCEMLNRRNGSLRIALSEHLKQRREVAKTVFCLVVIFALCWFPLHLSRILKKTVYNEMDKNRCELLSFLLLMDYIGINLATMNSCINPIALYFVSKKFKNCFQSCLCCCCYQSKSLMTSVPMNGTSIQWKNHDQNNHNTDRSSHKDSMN

[4] = DRUGMATRIX: Phorbol Ester radioligand binding (ligand: [3H] PDBu); format: cell membranes, Mus musculus, ICR, Brain, Membrane; settings: Not Active = under 50% inhibition at 10 µM
Cathepsin G = biological target: T4, Cathepsin G (Homo sapiens, UniProt P08311); format: tissue-based; settings: neutrophil;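 also: inhibition of Cathepsin G enzyme activity, tested on an AMC-conjugated peptide substrate; in other assays of this panel Not Active means under 50% inhibition at 10 µM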
T4 sequence (P08311 whole entry): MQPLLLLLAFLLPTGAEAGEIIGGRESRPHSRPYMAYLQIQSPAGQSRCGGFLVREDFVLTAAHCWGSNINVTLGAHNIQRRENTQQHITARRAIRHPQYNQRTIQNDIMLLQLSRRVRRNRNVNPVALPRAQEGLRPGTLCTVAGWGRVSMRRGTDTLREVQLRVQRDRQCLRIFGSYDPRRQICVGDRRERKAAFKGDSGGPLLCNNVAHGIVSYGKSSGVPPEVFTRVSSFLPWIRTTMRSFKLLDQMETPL

| SMILES | IC50 ([1]; read-out: IC50) | Ki [1] | IC50 [2] | Ki [2] | IC50 [3] | IC50 (D(4) dopamine receptor; cho-k1) | IC50 (Endothelin-1 receptor; cho-k1) | IC50 [4] | Ki [4] | IC50 (Cathepsin G) | IC50 ([1]; cho-k1) | IC50 (Endothelin-1 receptor; read-out: IC50) | Ki (Endothelin-1 receptor; read-out: Ki) | Ki (Cathepsin G) | IC50 (D(4) dopamine receptor; read-out: IC50) | Ki (D(4) dopamine receptor; read-out: Ki) |
| --- | --- | --- | --- | --- | --- | --- | --- | --- | --- | --- | --- | --- | --- | --- | --- | --- |
| COc1cc(N)nc2[nH]c(-c3ccc(F)cc3)c(-c3ccncc3)c12 | 1.24 µM | 0.648 µM | Not Active | Not Active | Not Active | Not Active | Not Active | Not Active | Not Active | Not Active |  |  |  |  |  |  |
| CNS(=O)(=O)Cc1ccc2[nH]cc(CCN(C)C)c2c1 |  |  | Not Active | Not Active | Not Active | Not Active | Not Active | Not Active | Not Active | Not Active | Not Active |  |  |  |  |  |
| CCCc1nn(C)c2c(=O)[nH]c(-c3cc(S(=O)(=O)N4CCN(C)CC4)ccc3OCC)nc12 |  |  | Not Active | Not Active | Not Active | Not Active | Not Active | Not Active | Not Active | Not Active | Not Active |  |  |  |  |  |
| COc1ccc(/C=C/C(=O)Nc2ccccc2C(=O)O)cc1OC |  |  | Not Active | Not Active | Not Active | Not Active | Not Active | Not Active | Not Active | Not Active | Not Active |  |  |  |  |  |
| CCOC(N)=O |  |  | Not Active | Not Active | Not Active | Not Active | Not Active | Not Active | Not Active | Not Active | Not Active |  |  |  |  |  |
| CC(=O)Nc1nnc(S(N)(=O)=O)s1 [ACETAZOLAMIDE] |  |  |  |  | Not Active | Not Active | Not Active |  |  | Not Active | Not Active |  |  |  |  |  |
| O=c1[nH]c2ccccc2n1CCCN1CCC(n2c(=O)[nH]c3cc(Cl)ccc32)CC1 [DOMPERIDONE] |  |  |  |  | Not Active | Not Active | Not Active |  |  | Not Active |  |  |  |  |  |  |
| CC1=C(CC(=O)O)c2cc(F)ccc2/C1=C\c1ccc(S(C)(=O)=O)cc1 [EXISULIND] |  |  | Not Active | Not Active | Not Active | Not Active |  | Not Active | Not Active | Not Active | Not Active | 9.85 µM | 6.06 µM |  |  |  |
| CC(C)OC(=O)C(C)(C)Oc1ccc(C(=O)c2ccc(Cl)cc2)cc1 [FENOFIBRATE] |  |  |  |  | Not Active | Not Active | Not Active |  |  |  |  |  |  | Not Active |  |  |
| OCCN1CCN(CCCN2c3ccccc3Sc3ccc(C(F)(F)F)cc32)CC1 [FLUPHENAZINE] |  |  |  |  | Not Active |  | Not Active |  |  | Not Active |  |  |  |  | 5.88 µM | 2.06 µM |
| CN1C2CCCC1CC(NC(=O)c1nn(C)c3ccccc13)C2 (stereo not drawn) [GRANISETRON] |  |  |  |  | Not Active | Not Active | Not Active |  |  | Not Active | Not Active |  |  |  |  |  |
| Nc1nc2c(c(=O)[nH]1)N(C=O)C(CNc1ccc(C(=O)N[C@@H](CCC(=O)O)C(=O)O)cc1)CN2 (stereo partly drawn) [LEUCOVORIN] |  |  | Not Active | Not Active | Not Active | Not Active | Not Active | Not Active | Not Active | Not Active | Not Active |  |  |  |  |  |
| C[C@@H](O)[C@H]1C(=O)N2C(C(=O)O)=C(S[C@@H]3CN[C@H](C(=O)N(C)C)C3)[C@H](C)[C@H]12 [MEROPENEM] |  |  | Not Active | Not Active | Not Active | Not Active | Not Active | Not Active | Not Active | Not Active | Not Active |  |  |  |  |  |
| CC[C@@H](CO)NC(=O)[C@@H]1C=C2c3cccc4c3c(cn4C)C[C@H]2N(C)C1 [METHYSERGIDE] | 0.00209 µM | 0.00109 µM |  |  | Not Active | Not Active | Not Active |  |  | Not Active |  |  |  |  |  |  |
| CCN(CC)CC#CCOC(=O)C(O)(c1ccccc1)C1CCCCC1 (stereo not drawn) [OXYBUTYNIN] |  |  |  |  | Not Active | Not Active | Not Active |  |  | Not Active | Not Active |  |  |  |  |  |
| O=P(O)(O)C(O)(Cc1cccnc1)P(=O)(O)O [RISEDRONIC ACID] |  |  | Not Active | Not Active | Not Active | Not Active | Not Active | Not Active | Not Active | Not Active | Not Active |  |  |  |  |  |
| CN(CCOc1ccc(CC2SC(=O)NC2=O)cc1)c1ccccn1 (stereo not drawn) [ROSIGLITAZONE] |  |  | Not Active | Not Active | Not Active | Not Active | Not Active | Not Active | Not Active | Not Active | Not Active |  |  |  |  |  |
| C=C(C)[C@H]1Cc2c(ccc3c2O[C@@H]2COc4cc(OC)c(OC)cc4[C@@H]2C3=O)O1 [ROTENONE] |  |  | Not Active | Not Active | Not Active | Not Active | Not Active | Not Active | Not Active | Not Active | Not Active |  |  |  |  |  |
| C#CCN(C)[C@H](C)Cc1ccccc1 [SELEGILINE] |  |  | Not Active | Not Active | Not Active | Not Active | Not Active | Not Active | Not Active | Not Active | Not Active |  |  |  |  |  |
| CO[C@H]1C[C@@H]2CC[C@@H](C)[C@@](O)(O2)C(=O)C(=O)N2CCCC[C@H]2C(=O)O[C@H]([C@H](C)C[C@@H]2CC[C@@H](O)[C@H](OC)C2)CC(=O)[C@H](C)/C=C(\C)[C@@H](O)[C@@H](OC)C(=O)[C@H](C)C[C@H](C)/C=C/C=C/C=C/1C [SIROLIMUS] |  |  | Not Active | Not Active | Not Active | Not Active | Not Active | Not Active | Not Active | Not Active | Not Active |  |  |  |  |  |
| CN[C@@H]1[C@H](O)[C@H](NC)[C@H]2O[C@@]3(O)C(=O)C[C@@H](C)O[C@H]3O[C@@H]2[C@H]1O [SPECTINOMYCIN] |  |  | Not Active | Not Active | Not Active | Not Active | Not Active | Not Active | Not Active | Not Active | Not Active |  |  |  |  |  |
| Nc1ccc(S(=O)(=O)Nc2ncccn2)cc1 [SULFADIAZINE] |  |  | Not Active | Not Active | Not Active | Not Active | Not Active | Not Active | Not Active | Not Active | Not Active |  |  |  |  |  |
| COc1ncnc(NS(=O)(=O)c2ccc(N)cc2)c1OC [SULFADOXINE] |  |  | Not Active | Not Active | Not Active | Not Active | Not Active | Not Active | Not Active | Not Active | Not Active |  |  |  |  |  |
| Nc1ccc(S(=O)(=O)Nc2nccs2)cc1 [SULFATHIAZOLE] |  |  | Not Active | Not Active | Not Active | Not Active | Not Active | Not Active | Not Active | Not Active | Not Active |  |  |  |  |  |
| O=c1n(CCCN2CCN(c3cccc(Cl)c3)CC2)nc2ccccn12 [TRAZODONE] |  |  |  |  | Not Active | Not Active | Not Active |  |  | Not Active |  |  |  |  |  |  |
